Measured values published in ChEMBL document CHEMBL1155227, “Identification of N-(5-tert-butyl-isoxazol-3-yl)-N'-{4-[7-(2-morpholin-4-yl-ethoxy)imidazo[2,1-b][1,3]benzothiazol-2-yl]phenyl}urea dihydrochloride (AC220), a uniquely potent, selective, and efficacious FMS-like tyrosine kinase-3 (FLT3) inhibitor” (J Med Chem, 2009).

What was measured:
MV4-11 = experiment: cells; conditions: Homo sapiens, MV4-11, 72 h
Description: Antiproliferative activity against human MV4-11 cells after 72 hrs by cell titer-blue cell viability assay

[1] = molecular target: T1, Receptor-type tyrosine-protein kinase FLT3 (Homo sapiens, UniProt P36888); experiment: biochemical; format: cell-based, HEK293
T1 sequence (P36888 whole entry): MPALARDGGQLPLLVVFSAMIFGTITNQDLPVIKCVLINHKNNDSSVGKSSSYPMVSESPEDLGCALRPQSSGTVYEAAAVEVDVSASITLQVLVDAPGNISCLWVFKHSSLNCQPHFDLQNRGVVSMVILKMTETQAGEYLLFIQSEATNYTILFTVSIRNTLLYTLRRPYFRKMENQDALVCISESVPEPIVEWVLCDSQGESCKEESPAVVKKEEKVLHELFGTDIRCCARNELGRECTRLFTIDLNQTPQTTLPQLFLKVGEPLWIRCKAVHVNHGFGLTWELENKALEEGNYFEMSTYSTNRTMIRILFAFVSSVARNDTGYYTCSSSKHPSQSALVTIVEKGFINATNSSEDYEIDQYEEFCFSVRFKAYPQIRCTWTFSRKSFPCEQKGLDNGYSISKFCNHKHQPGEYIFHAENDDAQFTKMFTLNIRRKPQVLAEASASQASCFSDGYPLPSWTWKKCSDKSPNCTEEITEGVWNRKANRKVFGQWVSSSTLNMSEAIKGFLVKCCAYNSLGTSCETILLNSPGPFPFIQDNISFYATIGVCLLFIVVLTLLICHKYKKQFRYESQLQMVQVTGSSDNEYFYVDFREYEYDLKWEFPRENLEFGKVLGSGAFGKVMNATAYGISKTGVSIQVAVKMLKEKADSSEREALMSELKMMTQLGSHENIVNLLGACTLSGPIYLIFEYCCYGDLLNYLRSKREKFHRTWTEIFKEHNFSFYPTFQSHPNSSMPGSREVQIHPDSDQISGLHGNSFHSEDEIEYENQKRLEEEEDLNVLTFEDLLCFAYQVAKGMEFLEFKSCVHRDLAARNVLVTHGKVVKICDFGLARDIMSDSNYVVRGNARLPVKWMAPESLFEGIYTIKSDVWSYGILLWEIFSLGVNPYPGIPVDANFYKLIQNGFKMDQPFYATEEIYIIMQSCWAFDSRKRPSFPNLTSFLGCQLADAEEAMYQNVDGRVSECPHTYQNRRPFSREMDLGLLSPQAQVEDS
Description: Binding affinity to FLT3 catalytic domain expressed in HEK293 cells by competitive binding assay

in vivo [2] = conditions: athymic nude, mouse, po, 10 mg/kg
Description: Cmax in athymic nude mouse at 10 mg/kg, po

in vivo [3] = conditions: athymic nude, mouse, po, 10 mg/kg; remark: listed apart in the source
Description: Half life in athymic nude mouse at 10 mg/kg, po

in vivo [4] = conditions: athymic nude, mouse, plasma, po, 10 mg/kg
Description: AUC (0 to infinity) in athymic nude mouse at 10 mg/kg, po

IC50 (MV4-11) [nM]	Kd [1] [nM]	Cmax (in vivo [2]) [nM]	half-life (in vivo [3]) [h]	AUC(0-inf) (in vivo [4]) [µM·h]	Structure (SMILES)
0.56	2.3	–	–	–	CC(C)(C)c1cc(NC(=O)Nc2ccc(-c3cn4c(n3)sc3ccc(OCCN5CCOCC5)cc34)cc2)no1
0.78	1.7	–	–	–	CN1CCN(CCCOc2ccc3c(c2)sc2nc(-c4ccc(NC(=O)Nc5cc(C(C)(C)C)on5)cc4)cn23)CC1
0.79	0.99	–	–	–	CC(C)(C)c1cc(NC(=O)Nc2ccc(-c3cn4c(n3)sc3cc(OCCCN5CCOCC5)ccc34)cc2)no1
0.23	1.5	–	–	–	CC(C)(C)c1cc(NC(=O)Nc2ccc(-c3cn4c(n3)sc3cc(CCC(=O)N5CCOCC5)ccc34)cc2)no1
0.41	0.98	490	6.7	0.67	CCN1CCN(C(=O)c2ccc3c(c2)sc2nc(-c4ccc(NC(=O)Nc5cc(C(C)(C)C)on5)cc4)cn23)CC1
0.66	2	–	–	–	CCN1CCN(C(=O)CCc2ccc3c(c2)sc2nc(-c4ccc(NC(=O)Nc5cc(C(C)(C)C)on5)cc4)cn23)CC1
0.88	1.5	–	–	–	CC(C)(C)c1cc(NC(=O)Nc2ccc(-c3cn4c(n3)sc3cc(OCCN5CCCCC5)ccc34)cc2)no1
0.15	2.7	–	–	–	CC(C)(C)c1cc(NC(=O)Nc2ccc(-c3cn4c(n3)sc3cc(O)ccc34)cc2)no1
0.62	1.2	–	–	–	CN1CCN(c2ccc3c(c2)sc2nc(-c4ccc(NC(=O)Nc5cc(C(C)(C)C)on5)cc4)cn23)CC1
9.3	5.2	–	–	–	CC(C)(C)c1cc(NC(=O)Nc2ccc(-c3cn4c(n3)sc3cccc(OCCN5CCOCC5)c34)cc2)no1
0.35	1.9	–	–	–	CC(C)(C)c1cc(NC(=O)Nc2ccc(-c3cn4c(n3)sc3ccccc34)cc2)no1
0.38	1.1	–	–	–	CCN1CCN(Cc2ccc3c(c2)sc2nc(-c4ccc(NC(=O)Nc5cc(C(C)(C)C)on5)cc4)cn23)CC1
0.41	1.3	–	–	–	CC(C)(C)c1cc(NC(=O)Nc2ccc(-c3cn4c(n3)sc3cc(CCC(=O)O)ccc34)cc2)no1
0.53	1.3	2190	2.3	14.6	CC(C)(C)c1cc(NC(=O)Nc2ccc(-c3cn4c(n3)sc3cc(CCCN5CCOCC5)ccc34)cc2)no1
1	1.6	2090	4.5	21.3	CC(C)(C)c1cc(NC(=O)Nc2ccc(-c3cn4c(n3)sc3cc(C(=O)O)ccc34)cc2)no1
1.1	9.7	1580	4.6	11.7	CC(C)(C)c1cc(NC(=O)Nc2ccc(-c3cn4c(n3)sc3cc(OCCCN5CCN(S(C)(=O)=O)CC5)ccc34)cc2)no1
